Source: patent publication US7238694B2, “Rifamycin imino derivatives effective against drug-resistant microbes” (Cumbre Pharmaceuticals, Inc., priority 2004, dated 2007)
≈ marks a conversion by molar mass, not a printed value.

How the values were obtained:
Type in all cases: cell-based
[1] = tested on: Staphylococcus aureus ATCC29213; test: MIC, microbroth dilution (NCCLS); details: rifS strain, Cation-Adjusted Mueller-Hinton Broth, 37° C., read-out: MIC
[2] = tested on: Staphylococcus aureus ATCC29213 rpoB^H418Y; test: microbe, parasite or virus in culture; details: Staphylococcus aureus, ATCC29213; rifR strain; Cation-Adjusted Mueller-Hinton Broth, 37° C.; read-out: MIC
[3] = tested on: Staphylococcus aureus MT1222 gyrA^A116E grlB^S80F; test: microbe, parasite or virus in culture; details: cipR strain, Cation-Adjusted Mueller-Hinton Broth, 37° C., read-out: MIC
[4] = tested on: Staphylococcus epidermidis ATCC12228; test: MIC, microbroth dilution (NCCLS); details: rifS strain, Cation-Adjusted Mueller-Hinton Broth, 37° C., read-out: MIC
[5] = tested on: Streptococcus pneumoniae ATCC6303; test: MIC, microbroth dilution (NCCLS); details: rifS strain, THY Broth with 1 mg/mL catalase, 5% CO2, 37° C., read-out: MIC
[6] = tested on: Streptococcus pyogenes ATCC19615; test: MIC, microbroth dilution (NCCLS); details: rifS strain, THY Broth, 37° C., read-out: MIC
[7] = tested on: Haemophilus influenzae ATCC10211; test: MIC, microbroth dilution (NCCLS); details: rifS strain, BHI Broth with NAD and hematin, 37° C., read-out: MIC

Structure (SMILES)	MIC [1] [µg/mL]	MIC [2] [µg/mL]	MIC [3] [µg/mL]	MIC [4] [µg/mL]	MIC [5] [µg/mL]	MIC [6] [µg/mL]	MIC [7] [µg/mL]
CO[C@H]1/C=C/O[C@@]2(C)Oc3c(C)c(O)c4c(O)c(c(/C=N/NC5CCN(c6nc7c(cc6F)c(=O)c(C(=O)O)cn7-c6ccc(F)cc6F)C5)c(O)c4c3C2=O)NC(=O)/C(C)=C\C=C\[C@H](C)[C@H](O)[C@@H](C)[C@@H](O)[C@@H](C)[C@H](OC(C)=O)[C@@H]1C (mixture of isomers) [Example 9, (R/S)-3-[1-[3-Carboxy-1-(2,4-difluoro-phenyl)-6-fluoro-4-oxo-1,4-dihydro-[1,8]naphthyridin-7-yl]-pyrrolidinyl-3-hydrazinomethylenyl]rifamycin SV]	0.008 to 1 (≈ 0.0071 to 0.887 µM)	0.06 to 16 (≈ 0.0532 to 14.2 µM)	0.008 to 0.125 (≈ 0.0071 to 0.111 µM)	0.008 to 0.1 (≈ 0.0071 to 0.0887 µM)	0.008 to 0.06 (≈ 0.0071 to 0.0532 µM)	0.008 to 0.03 (≈ 0.0071 to 0.0266 µM)	0.125 to 4 (≈ 0.111 to 3.55 µM)
CO[C@H]1/C=C/O[C@@]2(C)Oc3c(C)c(O)c4c(O)c(c(/C=N/N5CCC(NC6(C7CCN(c8c(F)cc9c(=O)c(C(=O)O)cn(C%10CC%10)c9c8Cl)C7)CC6)CC5)c(O)c4c3C2=O)NC(=O)/C(C)=C\C=C\[C@H](C)[C@H](O)[C@@H](C)[C@@H](O)[C@@H](C)[C@H](OC(C)=O)[C@@H]1C (mixture of isomers) [Example 45, (R/S)-3-[4-[1-[1-(3-Carboxy-1-cyclopropyl-7-fluoro-8-chloro-4-oxo-4H-quinolin-7-yl)pyrrolidin-3-yl]cycloprop-1-ylamino]piperidin-1-ylaminomethylenyl]rifamycin SV]	0.008 to 1 (≈ 0.0066 to 0.825 µM)	0.06 to 16 (≈ 0.0495 to 13.2 µM)	0.008 to 0.125 (≈ 0.0066 to 0.103 µM)	0.008 to 0.1 (≈ 0.0066 to 0.0825 µM)	0.008 to 0.06 (≈ 0.0066 to 0.0495 µM)	0.008 to 0.03 (≈ 0.0066 to 0.0248 µM)	0.125 to 4 (≈ 0.103 to 3.3 µM)
CO[C@H]1/C=C/O[C@@]2(C)Oc3c(C)c(O)c4c(O)c(c(/C=N/N(C)C5CCN(c6cc7c(cc6F)c(=O)c(C(=O)O)cn7C6CC6)C5)c(O)c4c3C2=O)NC(=O)/C(C)=C\C=C\[C@H](C)[C@H](O)[C@@H](C)[C@@H](O)[C@@H](C)[C@H](OC(C)=O)[C@@H]1C (mixture of isomers) [Example 15, (R/S)-3-[1-(3-Carboxy-1-cyclopropyl-6-fluoro-4-oxo-1,4-dihydroquinolin-7-yl)-pyrrolidin-3-yl-N′-methylhydrazinomethylenyl]rifamycin SV]	0.008 to 1 (≈ 0.00749 to 0.936 µM)	0.06 to 16 (≈ 0.0562 to 15 µM)	0.008 to 0.125 (≈ 0.00749 to 0.117 µM)	0.008 to 0.1 (≈ 0.00749 to 0.0936 µM)	0.008 to 0.06 (≈ 0.00749 to 0.0562 µM)	0.008 to 0.03 (≈ 0.00749 to 0.0281 µM)	0.125 to 4 (≈ 0.117 to 3.74 µM)
COc1c(N2CCC(C(C)N/N=C/c3c4c(O)c5c(O)c(C)c6c(c5c3O)C(=O)[C@@](C)(O/C=C/[C@H](OC)[C@@H](C)[C@@H](OC(C)=O)[C@H](C)[C@H](O)[C@H](C)[C@@H](O)[C@@H](C)/C=C/C=C(/C)C(=O)N4)O6)C2)c(F)cc2c(=O)c(C(=O)O)cn(C3CC3)c12 (stereo partly drawn) [Example 42, 3-({1-[1-(3-Carboxy-1-cyclopropyl-6-fluoro-8-methoxy-4-oxo-1,4-dihydro-quinolin-7-yl)-pyrrolidin-3-yl]-ethyl}-hydrazinomethylenyl)-rifamycin SV]	0.008 to 1 (≈ 0.00719 to 0.899 µM)	0.06 to 16 (≈ 0.0539 to 14.4 µM)	0.008 to 0.125 (≈ 0.00719 to 0.112 µM)	0.008 to 0.1 (≈ 0.00719 to 0.0899 µM)	0.008 to 0.06 (≈ 0.00719 to 0.0539 µM)	0.008 to 0.03 (≈ 0.00719 to 0.027 µM)	0.125 to 4 (≈ 0.112 to 3.6 µM)
COc1c(N2CCCC(N/N=C/c3c4c(O)c5c(O)c(C)c6c(c5c3O)C(=O)[C@@](C)(O/C=C/[C@H](OC)[C@@H](C)[C@@H](OC(C)=O)[C@H](C)[C@H](O)[C@H](C)[C@@H](O)[C@@H](C)/C=C/C=C(/C)C(=O)N4)O6)C2)c(F)cc2c(=O)c(C(=O)O)cn(C3CC3)c12 (mixture of isomers) [Example 24, (R/S)-3-[1-(3-Carboxy-1-cyclopropyl-6-fluoro-8-methoxy-4-oxo-1,4-dihydroquinolin-7-yl)-piperidin-3-hydrazino-methylenyl]-rifamycin SV]	0.008 to 1 (≈ 0.00728 to 0.911 µM)	0.06 to 16 (≈ 0.0546 to 14.6 µM)	0.008 to 0.125 (≈ 0.00728 to 0.114 µM)	0.008 to 0.1 (≈ 0.00728 to 0.0911 µM)	0.008 to 0.06 (≈ 0.00728 to 0.0546 µM)	0.008 to 0.03 (≈ 0.00728 to 0.0273 µM)	0.125 to 4 (≈ 0.114 to 3.64 µM)
COc1c(N2CCN(/N=C/C3=C4NC(=O)/C(C)=C\C=C\[C@H](C)[C@H](O)[C@@H](C)[C@@H](O)[C@@H](C)[C@H](OC(C)=O)[C@H](C)[C@@H](OC)/C=C/O[C@@]5(C)Oc6c(C)c(O)c(c(c6C5=O)C3=O)C4=O)C(C)C2)c(F)cc2c(=O)c(C(=O)O)cn(C3CC3)c12 (mixture of isomers) [Example 12, (R/S)-3-[4-(3-Carboxy-1-cyclopropyl-6-fluoro-8-methoxy-4-oxo-1,4-dihydroquinolin-7-yl)-2-methylpiperazin-1-yl-aminomethylenyl]rifamycin S]	0.008 to 1 (≈ 0.0073 to 0.912 µM)	0.06 to 16 (≈ 0.0547 to 14.6 µM)	0.008 to 0.125 (≈ 0.0073 to 0.114 µM)	0.008 to 0.1 (≈ 0.0073 to 0.0912 µM)	0.008 to 0.06 (≈ 0.0073 to 0.0547 µM)	0.008 to 0.03 (≈ 0.0073 to 0.0274 µM)	0.125 to 4 (≈ 0.114 to 3.65 µM)
CO[C@H]1/C=C/O[C@@]2(C)Oc3c(C)c(O)c4c(O)c(c(/C=N/N5CCN(C6CCN(c7nc8c(cc7F)c(=O)c(C(=O)O)cn8-c7ccc(F)cc7F)C6)CC5)c(O)c4c3C2=O)NC(=O)/C(C)=C\C=C\[C@H](C)[C@H](O)[C@@H](C)[C@@H](O)[C@@H](C)[C@H](OC(C)=O)[C@@H]1C (mixture of isomers) [Example 34]	0.008 to 1 (≈ 0.00669 to 0.836 µM)	0.06 to 16 (≈ 0.0502 to 13.4 µM)	0.008 to 0.125 (≈ 0.00669 to 0.104 µM)	0.008 to 0.1 (≈ 0.00669 to 0.0836 µM)	0.008 to 0.06 (≈ 0.00669 to 0.0502 µM)	0.008 to 0.03 (≈ 0.00669 to 0.0251 µM)	0.125 to 4 (≈ 0.104 to 3.34 µM)
CO[C@H]1/C=C/O[C@@]2(C)Oc3c(C)c(O)c4c(O)c(c(/C=N/N5CCN(c6nc7c(cc6F)c(=O)c(C(=O)O)cn7-c6ccc(F)cc6F)CC5)c(O)c4c3C2=O)NC(=O)/C(C)=C\C=C\[C@H](C)[C@H](O)[C@@H](C)[C@@H](O)[C@@H](C)[C@H](OC(C)=O)[C@@H]1C [Example 14, 3-[4-[3-Carboxy-1-(2,4-difluoro-phenyl)-6-fluoro-4-oxo-1,4-dihydro-[1,8]naphthyridine-7-yl]-piperazin-1-ylaminomethylenyl]rifamycin SV]	0.008 to 1 (≈ 0.0071 to 0.887 µM)	0.06 to 16 (≈ 0.0532 to 14.2 µM)	0.008 to 0.125 (≈ 0.0071 to 0.111 µM)	0.008 to 0.1 (≈ 0.0071 to 0.0887 µM)	0.008 to 0.06 (≈ 0.0071 to 0.0532 µM)	0.008 to 0.03 (≈ 0.0071 to 0.0266 µM)	0.125 to 4 (≈ 0.111 to 3.55 µM)
COc1c(N2CCN(/N=C/c3c4c(O)c5c(O)c(C)c6c(c5c3O)C(=O)[C@@](C)(O/C=C/[C@H](OC)[C@@H](C)[C@@H](OC(C)=O)[C@H](C)[C@H](O)[C@H](C)[C@@H](O)[C@@H](C)/C=C/C=C(/C)C(=O)N4)O6)CC2)c(F)cc2c(=O)c(C(=O)O)cn(C3CC3)c12 [Example 20, 3-[4-(3-Carboxy-1-cyclopropyl-6-fluoro-8-methoxy-4-oxo-1,4-dihydroquinolin-7-yl)-piperazin-1-yl-aminomethylenyl]-rifamycin SV]	0.008 to 1 (≈ 0.00738 to 0.922 µM)	0.06 to 16 (≈ 0.0553 to 14.8 µM)	0.008 to 0.125 (≈ 0.00738 to 0.115 µM)	0.008 to 0.1 (≈ 0.00738 to 0.0922 µM)	0.008 to 0.06 (≈ 0.00738 to 0.0553 µM)	0.008 to 0.03 (≈ 0.00738 to 0.0277 µM)	0.125 to 4 (≈ 0.115 to 3.69 µM)
COc1c(N2CCC(N(Cc3ccccn3)/N=C/c3c4c(O)c5c(O)c(C)c6c(c5c3O)C(=O)[C@@](C)(O/C=C/[C@H](OC)[C@@H](C)[C@@H](OC(C)=O)[C@H](C)[C@H](O)[C@H](C)[C@@H](O)[C@@H](C)/C=C/C=C(/C)C(=O)N4)O6)C2)c(F)cc2c(=O)c(C(=O)O)cn(C3CC3)c12 (mixture of isomers) [Example 30, (R/S)-3-[1-(3-carboxy-1-cyclopropyl-6-fluoro-8-methoxy-4-oxo-1,4-dihydroquinolin-7-yl)-pyrrolidinyl-3-(pyridin-2-ylmethyl)hydrazino-methylenyl]-rifamycin SV]	0.008 to 1 (≈ 0.00681 to 0.851 µM)	0.06 to 16 (≈ 0.0511 to 13.6 µM)	0.008 to 0.125 (≈ 0.00681 to 0.106 µM)	0.008 to 0.1 (≈ 0.00681 to 0.0851 µM)	0.008 to 0.06 (≈ 0.00681 to 0.0511 µM)	0.008 to 0.03 (≈ 0.00681 to 0.0255 µM)	0.125 to 4 (≈ 0.106 to 3.4 µM)
COc1c(N2CCC(N/N=C/c3c4c(O)c5c(O)c(C)c6c(c5c3O)C(=O)[C@@](C)(O/C=C/[C@H](OC)[C@@H](C)[C@@H](OC(C)=O)[C@H](C)[C@H](O)[C@H](C)[C@@H](O)[C@@H](C)/C=C/C=C(/C)C(=O)N4)O6)C2)c(F)cc2c(=O)c(C(=O)O)cn(C3CC3)c12 (mixture of isomers) [Example 21, (R/S)-3-[1-(3-Carboxy-1-cyclopropyl-6-fluoro-8-methoxy-4-oxo-1,4-dihydroquinolin-7-yl)-pyrrolidinyl-3-hydrazino-methylenyl]-rifamycin SV]	0.008 to 1 (≈ 0.00738 to 0.922 µM)	0.06 to 16 (≈ 0.0553 to 14.8 µM)	0.008 to 0.125 (≈ 0.00738 to 0.115 µM)	0.008 to 0.1 (≈ 0.00738 to 0.0922 µM)	0.008 to 0.06 (≈ 0.00738 to 0.0553 µM)	0.008 to 0.03 (≈ 0.00738 to 0.0277 µM)	0.125 to 4 (≈ 0.115 to 3.69 µM)
COc1c(N2CCC(C3(N(C)C4CCN(/N=C/c5c6c(O)c7c(O)c(C)c8c(c7c5O)C(=O)[C@@](C)(O/C=C/[C@H](OC)[C@@H](C)[C@@H](OC(C)=O)[C@H](C)[C@H](O)[C@H](C)[C@@H](O)[C@@H](C)/C=C/C=C(/C)C(=O)N6)O8)CC4)CC3)C2)c(F)cc2c(=O)c(C(=O)O)cn(C3CC3)c12 (mixture of isomers) [Example 16]	0.008 to 1 (≈ 0.00655 to 0.819 µM)	0.06 to 16 (≈ 0.0491 to 13.1 µM)	0.008 to 0.125 (≈ 0.00655 to 0.102 µM)	0.008 to 0.1 (≈ 0.00655 to 0.0819 µM)	0.008 to 0.06 (≈ 0.00655 to 0.0491 µM)	0.008 to 0.03 (≈ 0.00655 to 0.0246 µM)	0.125 to 4 (≈ 0.102 to 3.27 µM)
